What was measured:
Format in all cases: biochemical
[1] = biological target: activated protein C (APC) (Homo sapiens, UniProt P04070); assay: Fluorogenic enzyme assay (Example 5); design: key to Kinetic constants, APC (symbol b): slow substrate hydrolysis, no kinetic constants calculated
Procedure, shortened: (§1)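 Initial-rate measurement of fluorogenic substrate cleavage; TBS pH 7.4, room temperature (22° C). Fluorophore detected at ex 352/em 470 nm, quantified by standard curve; Km and kcat obtained by Michaelis-Menten regression.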

[2] = biological target: plasmin (Plm) (Homo sapiens, UniProt P00747); assay: Fluorogenic enzyme assay (Example 5); conditions: 10 nM enzyme, substrate 1 μM
Chain of plasmin (Plm) (P00747 581-810 limits assumed, species assumed): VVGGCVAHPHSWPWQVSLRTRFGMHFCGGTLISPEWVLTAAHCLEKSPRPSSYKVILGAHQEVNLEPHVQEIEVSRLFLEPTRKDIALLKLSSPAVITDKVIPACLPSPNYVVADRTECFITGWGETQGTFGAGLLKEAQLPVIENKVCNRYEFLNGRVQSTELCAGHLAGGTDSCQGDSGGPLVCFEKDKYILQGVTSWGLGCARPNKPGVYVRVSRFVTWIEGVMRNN
Chain of plasmin (Plm) (P00747 97-580 limits assumed, species assumed): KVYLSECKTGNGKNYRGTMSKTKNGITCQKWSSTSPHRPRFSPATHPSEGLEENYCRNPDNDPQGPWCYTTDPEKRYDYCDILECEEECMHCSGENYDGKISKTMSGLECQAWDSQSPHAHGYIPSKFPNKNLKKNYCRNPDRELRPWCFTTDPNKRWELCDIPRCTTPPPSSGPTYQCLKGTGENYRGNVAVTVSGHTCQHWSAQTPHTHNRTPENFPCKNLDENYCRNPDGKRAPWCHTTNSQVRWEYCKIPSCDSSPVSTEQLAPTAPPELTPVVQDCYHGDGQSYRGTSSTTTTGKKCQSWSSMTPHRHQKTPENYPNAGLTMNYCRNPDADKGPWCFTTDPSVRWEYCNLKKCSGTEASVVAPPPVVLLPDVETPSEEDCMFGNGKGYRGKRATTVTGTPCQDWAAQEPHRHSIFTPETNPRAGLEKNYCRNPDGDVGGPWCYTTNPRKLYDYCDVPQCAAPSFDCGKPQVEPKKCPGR
Procedure, shortened: as §1

[3] = biological target: tissue plasminogen activator (t-PA) (Homo sapiens, UniProt P00750); assay: Fluorogenic enzyme assay (Example 5); conditions: 100 nM enzyme, substrate 1 μM
Chain of tissue plasminogen activator (t-PA) (P00750 36-562, species assumed): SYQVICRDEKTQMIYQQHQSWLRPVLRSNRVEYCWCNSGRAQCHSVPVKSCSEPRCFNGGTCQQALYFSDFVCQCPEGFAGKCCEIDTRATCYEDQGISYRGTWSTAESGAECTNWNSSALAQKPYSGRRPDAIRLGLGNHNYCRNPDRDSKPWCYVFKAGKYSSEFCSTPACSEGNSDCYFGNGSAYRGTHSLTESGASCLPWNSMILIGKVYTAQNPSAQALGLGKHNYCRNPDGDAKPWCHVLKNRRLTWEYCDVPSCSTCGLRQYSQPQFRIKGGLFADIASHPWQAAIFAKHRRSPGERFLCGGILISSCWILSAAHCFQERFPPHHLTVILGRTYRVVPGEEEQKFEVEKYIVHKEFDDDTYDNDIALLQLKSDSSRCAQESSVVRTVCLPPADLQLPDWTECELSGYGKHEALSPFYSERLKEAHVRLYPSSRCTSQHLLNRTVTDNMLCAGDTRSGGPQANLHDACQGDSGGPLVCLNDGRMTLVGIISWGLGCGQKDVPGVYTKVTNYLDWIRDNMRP
Procedure, shortened: as §1

[4] = biological target: urokinase (u-PA) (Homo sapiens, UniProt P00749); assay: Fluorogenic enzyme assay (Example 5); conditions: 100 nM enzyme, substrate 1 μM
[5] = biological target: T1, factor VIIa (Homo sapiens, UniProt P08709); assay: Fluorogenic enzyme assay, relative hydrolysis rates (Table 8); conditions: 10 nM enzyme, substrate 1 μM
T1 construct: directly measure the enzymatic activity of factor VIIa in the presence and absence of tissue factor and phospholipid
T1 sequence (P08709 213-466 limits assumed): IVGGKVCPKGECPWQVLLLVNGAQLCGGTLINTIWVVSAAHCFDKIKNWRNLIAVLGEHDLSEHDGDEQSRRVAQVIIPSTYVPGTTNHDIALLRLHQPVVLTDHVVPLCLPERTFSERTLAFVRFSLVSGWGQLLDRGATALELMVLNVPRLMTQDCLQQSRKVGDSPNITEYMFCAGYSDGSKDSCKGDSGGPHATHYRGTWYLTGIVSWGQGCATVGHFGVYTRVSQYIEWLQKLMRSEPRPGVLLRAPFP
T1 sequence (P08709 61-212 limits assumed): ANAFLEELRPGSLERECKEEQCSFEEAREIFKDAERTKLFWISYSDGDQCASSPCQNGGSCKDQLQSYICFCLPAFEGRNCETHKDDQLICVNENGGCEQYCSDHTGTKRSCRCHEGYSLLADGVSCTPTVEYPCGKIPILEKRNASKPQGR
Experimental: Enzyme assays (except factor VIIa assays, see below) were conducted in 20 mM Tris, 150 mM NaCl, pH 7.4 (TBS) at room temperature (22° C.). The final volume for all reaction mixtures was 2.0 ml. Fluorogenic substrates were dissolved in DMSO to a stock concentration of 10 mM. The 10 mM stock solution was diluted in TBS to the final working concentration prior to all assays. Enzyme was added to mixtures containing buffer components and substrate and the initial rate of substrate hydrolysis was measured as the change in fluorescent intensity over time, corresponding to the generation of the particular 6-amino-1-naphthalenesulfonamide fluorophore from the provided substrate. Quantitation of substrate hydrolysis was accomplished by establishing a standard curve from the appropriate fluorescent moiety. Fluorescence was monitored (continuously or discontinuously) using a Perkin Elmer fluorescence spectrophotometer, model MPF-44A, equipped with a standard chart recorder. The fluorophore was detected using monochrometers set at an excitation wavelength of 352 nm and an emission wavelength of 470 nm. Light scattering artifacts were minimized using a 399 nm cut off filter in the emission light beam.
Factor VII assays were conducted in 20 mM HEPES, 150 mM NaCl, 5 mM CaCl2, pH 7.4 (HBS) at 37° C. The final volume for all reactions was 1.6 ml. 6-(Mes-D-Leu-Gly-Arg)amino-1-(N,N-diethyl)naphthalenesulfonamide was dissolved in DMSO to a stock concentration of 10 mM. This 10 mM stock solution of was diluted in HBS to final working concentration prior to all assays. For reactions involving tissue factor (TF) and phospholipid vesicles, recombinant human tissue factor was solubilized in either 0.04% n-dodecyl octaethylene glycol (C12 E8) or 0.8% octyl glucoside. The TF/n-dodecyl octaethylene glycol was then relipidated into PCPS or PC vesicles by a 30 minute incubation step as described by Lawson & Mann, J. Biol. Chem. 266: 11317-11327 (1991). TF/octyl glucoside was relipidated into PC or PCPS vesicles by a thirty minute incubation step followed by exhaustive dialysis. The final concentration of tissue factor used in the studies described here ranged from 2 to 50 nM depending on the nature of the experiment.
Fifteen minutes prior to the start of all reactions factor VIIa was added to the reaction system. This incubation period was followed by the addition of substrate (1 μM to 400 μM) to the mixture to start the reaction. In experiments designed to determine kinetic constants of substrate hydrolysis, 50 nM rVIIa was used when no tissue factor was present in the reaction system, while 0.5 nM rVIIa was used when tissue factor was present in the reaction system. The rate of substrate hydrolysis was measured by change in fluorescence over time, which corresponded with the generation of the 6-amino-1-(N,N-diethyl)naphthalenesulfonamide from the provided substrate. The kinetic constants of 6-(Mes-D-Leu-Gly-Arg)amino-1-(N,N-diethyl)naphthalenesulfonamide hydrolysis as a function of factor VIIa/tissue factor complex assembly are shown in Table 10.

Chain of activated protein C (APC) (P04070 212-461 limits assumed): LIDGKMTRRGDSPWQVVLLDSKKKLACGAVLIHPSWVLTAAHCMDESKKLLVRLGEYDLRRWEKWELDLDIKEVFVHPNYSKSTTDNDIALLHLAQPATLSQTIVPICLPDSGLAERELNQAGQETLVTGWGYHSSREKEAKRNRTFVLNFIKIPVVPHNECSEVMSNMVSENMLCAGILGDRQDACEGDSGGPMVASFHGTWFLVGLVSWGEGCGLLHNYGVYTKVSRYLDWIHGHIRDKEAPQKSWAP
Chain of activated protein C (APC) (P04070 43-197 limits assumed): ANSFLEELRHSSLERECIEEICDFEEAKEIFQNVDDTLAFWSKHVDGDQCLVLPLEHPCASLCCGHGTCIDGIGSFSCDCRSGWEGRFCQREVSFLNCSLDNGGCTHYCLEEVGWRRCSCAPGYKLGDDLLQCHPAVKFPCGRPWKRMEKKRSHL

CCN(CC)S(=O)(=O)c1cccc2cc(NC(=O)[C@H](CCCNC(=N)N)NC(=O)CNC(=O)[C@@H](CC(C)C)NS(C)(=O)=O)ccc12 [MesD-LPR-ANSN(C2 H5)2, 6-(Mes-D-Leu-Gly-Arg)amino-1-(N,N-diethyl)napththalenesulfonamide]
TIME TO 10% HYDROLYSIS (HOURS), APC ([1]; 100 nM enzyme (footnote b), substrate 1 μM): 0.5 h | Kinetic constants, APC (symbol b) ([1]; Table 9): b | TIME TO 10% HYDROLYSIS (HOURS), Plm [2]: 1 h | TIME TO 10% HYDROLYSIS (HOURS), t-PA [3]: 2 h | TIME TO 10% HYDROLYSIS (HOURS), u-PA [4]: 2 h | TIME TO 10% HYDROLYSIS (HOURS), VIIa [5]: 4 h

From US5399487A, “6-peptidylamino-1-naphthalenesulfonamides useful as fluorogenic proteolytic enzyme substrates” (Haematologic Technologies, Inc., priority 1993, dated 1995)
